From patent publication US20230416703A1, “Methods and Materials for Producing Polyols and Electron Rich Compounds” (THE TRUSTEES OF PRINCETON UNIVERSITY, priority 2019, published 2023)
“Also recorded” adds a separate entry of the source. Each block holds one compound with its values, some of them ahead of it.

Experiments:
[1] = target: T1, yeast Pgi1 (phosphoglucose isomerase) (Saccharomyces cerevisiae, UniProt P12709); test: Inhibition of purified Pgi1 (phosphoglucose isomerase) activity, LC/MS detection of glucose-6-phosphate; format: biochemical; settings: for Inhibition of Pgi1 (in words): 0.6 mM fructose-6-phosphate, 0.05-5 mM polyol phosphate
T1 construct: purchased Sigma Aldrich (St. Louis, MO)
T1 sequence (P12709 2-554 limits assumed): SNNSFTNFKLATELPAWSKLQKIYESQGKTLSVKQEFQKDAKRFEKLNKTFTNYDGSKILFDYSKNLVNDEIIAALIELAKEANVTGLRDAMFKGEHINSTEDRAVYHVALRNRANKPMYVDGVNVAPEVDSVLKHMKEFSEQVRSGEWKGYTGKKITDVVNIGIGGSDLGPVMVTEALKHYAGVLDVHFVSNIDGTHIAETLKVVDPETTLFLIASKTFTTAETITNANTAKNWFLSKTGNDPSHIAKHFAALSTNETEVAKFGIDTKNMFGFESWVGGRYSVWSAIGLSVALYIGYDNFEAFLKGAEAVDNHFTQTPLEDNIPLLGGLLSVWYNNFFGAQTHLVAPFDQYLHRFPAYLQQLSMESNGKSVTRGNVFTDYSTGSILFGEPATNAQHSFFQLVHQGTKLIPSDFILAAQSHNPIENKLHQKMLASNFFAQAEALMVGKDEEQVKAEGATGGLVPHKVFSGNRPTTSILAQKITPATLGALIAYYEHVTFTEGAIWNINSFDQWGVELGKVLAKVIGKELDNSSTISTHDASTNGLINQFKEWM
Description: Purified Pgi1's activity was assayed in the presence of 0.6 mM fructose-6-phosphate, 5 mM Mg^2+ (pH=7.0, 30° C.) and a range of 0.05-5 mM of sorbitol-6P or ribitol-5P by monitoring the appearance of glucose-6-phosphate. The y axis represents relative Pgi1 activity (mean±range of N=2 replicates).
FIGS. 13A-13C show polyol phosphates inhibit phosphoglucose isomerase in vitro and in growing yeast. (FIG. 13A). Activity of the purified Pgi1 was assayed in the presence of 0.6 mM fructose-6-phosphate (substrate), 5 mM Mg2+ (pH=7.0, 30° C.) and a range of 0.05-5 mM of sorbitol-6P or ribitol-5P by monitoring the appearance of glucose-6-phosphate. The x-axis represents polyol phosphate concentration and the y-axis represents relative Pgi1 activity (mean±range of N=2 replicates). (FIG. 13B). […] This experiment is used to define a characteristic low-Pgi metabolome. (FIG. 13C). Metabolome profiling of pyp1Δ (dark red) and wild type (blue) cells at t=1 h after switching from trehalose+ribitol to glucose+ribitol.
For the determination of IC50 of sorbitol-6-phosphate and ribitol-5-phosphate on phosphoglucose isomerase, yeast Pgi1 was purchased from Sigma Aldrich (St. Louis, MO). Phosphoglucose isomerase activity was determined by adding fructose-6-phosphate and monitoring the appearance of glucose-6-phosphate using LC/MS. It was determined that the LC/MS-based assay is consistently more sensitive and accurate than the colometric-based assay, which involves coupling the Pgi1 activity with glucose-6-phosphate dehydrogenase activity and monitoring the appearance of NADH. The reaction mixture contained 100 mM Tris-HCl at a pH of 8.0, 10 mM MgCl2, 0.6 mM fructose-6-phosphate (concentration in cells grown exponentially on glucose), and a range of sorbitol-6-phosphate and ribitol-5-phosphate concentrations (0.05 to 5 mM). The resulting data were again fitted to the Hill equation using the GraphPad Prism Software.
To measure the inhibition of Pgi by sorbitol-6-phosphate and ribitol-5-phosphate, yeast Pgi1 was purchased from Sigma Aldrich (St. Louis, MO). Phosphoglucose isomerase activity was determined by adding fructose-6-phosphate and monitoring the appearance of glucose-6-phosphate using LC/MS. We found such LC/MS based assay is consistently more sensitive and accurate than the more typical colorimetric-based assay, which involves coupling the Pgi1 activity with glucose-6-phosphate dehydrogenase activity and monitoring the appearance of NADH. The reaction mixture contained 100 mM Tris-HCl at pH 8.0, 10 mM MgCl2, 0.6 mM fructose-6-phosphate (the physiological concentration in cells grown exponentially on glucose), and a range of sorbitol-6-phosphate and ribitol-5-phosphate concentrations (0.05 to 5 mM). The resulting data were fitted to the Hill equation using the GraphPad Prism Software.

Pyp1 = target: T2, Pyp1 (Saccharomyces cerevisiae, UniProt P53981); test: Phosphatase activity of purified recombinant Pyp1 against phosphorylated substrates; format: biochemical, S. cerevisiae; settings: incubation with purified Pyp1, 0.5 mM substrate
T2 construct: made in house; host or cells: E. coli BL21 (DE3) Gold
T2 sequence (P53981 whole entry): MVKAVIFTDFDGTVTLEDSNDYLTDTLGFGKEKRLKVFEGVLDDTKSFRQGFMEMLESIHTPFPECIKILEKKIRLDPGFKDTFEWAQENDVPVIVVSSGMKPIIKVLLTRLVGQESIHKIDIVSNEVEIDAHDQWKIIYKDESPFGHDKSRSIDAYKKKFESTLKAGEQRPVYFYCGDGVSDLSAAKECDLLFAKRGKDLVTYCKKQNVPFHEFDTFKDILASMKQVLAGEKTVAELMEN
Description: Purified Pyp1 phosphatase activity was assayed in the presence of 0.5 mM substrate and 5 mM Mg^2+ (pH=7.0, 30° C.) by monitoring the appearance of free phosphate or the polyol. The y axis represents specific phosphatase activity (μmol product made per mg of protein per minute) (mean±range of N=2 replicates).
Purified Pyp1's phosphatase activity was assayed against 0.5 mM ribitol-5P by LC-MS. […] (FIG. 10B). Pyp1's D-polyol phosphatase activity was measured in the presence of 0.5 mM substrate and 5 mM Mg^2+ (pH=7.0, 30° C.) by monitoring the appearance of phosphate or the polyol. The y-axis represents specific phosphatase activity (moles product per min per mg of protein) (mean±range, N=2).
In the initial screening of Pyp1's phosphatase activity, the gene encoding Pyp1 was amplified by PCR using S. cerevisiae genomic DNA. The amplified fragments were cloned into a modified pET15b vector (Novagen, Darmstadt, Germany) and overexpressed in the E. coli BL21(DE3) Gold strain (Stratagene, La Jolla, California) as previously described by Kuznetsova et al., J Biol Chem 2010, 285, 21049. The recombinant proteins were purified using metal ion affinity chromatography on nickel affinity resin (Qiagen, Hilden, Germany) to high homogeneity and stored at −80° C. Purified Pyp1 was screened for the presence of phosphatase activity against the general phosphatase substrate p-nitrophenyl phosphate (pNPP) and 90 phosphorylated metabolites as described previously by Kuznetsova et al., J Biol Chem 2006, 281, 36149. […]
Briefly, the gene encoding Pyp1 was amplified by PCR using S. cerevisiae genomic DNA. The amplified fragments were cloned into a modified pET15b vector (Novagen, Darmstadt, Germany) and overexpressed in the E. coli BL21 (DE3) Gold strain (Stratagene, La Jolla, California) as previously described (Kuznetsova et al., 2010). The recombinant protein was purified using metal ion affinity chromatography on nickel chelate resin (Qiagen, Hilden, Germany) to high homogeneity and stored at −80° C. Purified Pyp1 was then screened for phosphatase activity as described previously (Kuznetsova et al., 2006).

pyp1Δ cells = test: Growth rate of pyp1Δ yeast in the presence of ribitol; format: cell-based, Saccharomyces cerevisiae
Text: (§1) Wild type yeast and pyp1Δ cells growing on 1% trehalose in the absence or presence of 1% ribitol (upper panel) were switched to media with trehalose substituted by 1% glucose (lower panel). The y axis represents ratio of growth rates (mean±range of N=2 replicates) of cells growing in the presence of ribitol vs. cells growing in the absence of ribitol. […] The x axis represents hours after the switch and the y axis represents absolute intracellular concentration (mean±range of N=2 replicates). […] The x axis represents different growth rates and the y axis represents relative expression level of PYP1. […] The y axis represents absolute intracellular concentration, except for the panel displaying the NADPH/NADP^+ ratio (mean±range of N=2 replicates).
(§2) (FIG. 12A). Growth of wild type and pyp1Δ yeast on sorbitol. Yeast cells grown on YPD medium were switched to minimal media containing 2% sorbitol as the carbon source. The x-axis represents days after the switch and the y-axis represents optical density (A600). (FIG. 12B). Absolute concentration of sorbitol-6-phosphate in wild type and pyp1Δ cells in the experiment shown in (A). The x-axis represents days after the switch and the y-axis represents absolute intracellular concentration (mean±range, N=2). (FIG. 12C). Growth of wild type and pyp1Δ cells on glycerol and mannitol. […]

wild type yeast cells = test: Growth rate of wild type yeast in the presence of ribitol; format: cell-based, Saccharomyces cerevisiae; settings: 1% trehalose +/- 1% ribitol
Text: as §1, §2

- Pyp1 phosphatase activity on substrate (in words) (Pyp1): depletion
- Pyp1 phosphatase activity on substrate (in words) (Pyp1; listed as Glycerol-1-phosphate): in vitro substrate
Structure (SMILES): O=P(O)(O)OCC(O)CO [glycerol-1P, D-glycerol-3-phosphate]

- Pyp1 phosphatase activity on substrate (in words) (Pyp1): hydrolysis
Structure (SMILES): O=C[C@H](O)[C@H](O)COP(=O)(O)O [erythrose-4P]

- Pyp1 phosphatase activity on substrate (in words) (Pyp1): hydrolysis
Structure (SMILES): O=P(O)(O)OCC(O)CO (racemic) [racemic glycerol-3P]

- Pyp1 phosphatase activity on substrate (in words) (Pyp1): No detectable phosphatase activity
- Pyp1 phosphatase activity on substrate (in words) (Pyp1; listed as octulose-8P): no detectable phosphatase activity
Structure (SMILES): O=C(CO)[C@@H](O)[C@H](O)[C@H](O)[C@H](O)[C@H](O)COP(=O)(O)O [O8P, D-Glycero-D-Altro-Octulose-8-phosphate]

- Pyp1 phosphatase activity on substrate (in words) (Pyp1; listed as (L)-glycerol-3P): very low activity
Structure (SMILES): O=P(O)(O)OC[C@H](O)CO [glycerol-3P, L-glycerol-3-phosphate]

Continued, compound first:

Structure (SMILES): O=P(O)(O)OC[C@@H](O)[C@@H](O)[C@H](O)[C@@H](O)CO [sorbitol-6P, sorbitol-6-phosphate]
- Inhibition of Pgi1 (in words) [1]: inhibit
- inhibition at 1000 µM ([1]; 1 mM sorbitol-6P added, read-out: Pgi1 activity inhibited): > 85%
- IC50 ([1]; purified Pgi1, 0.6 mM fructose-6-phosphate, inhibitor range 0.05-5 mM): ~50 µM
- Pyp1 phosphatase activity on substrate (in words) (Pyp1): depletion; also recorded: hydrolysis

Structure (SMILES): O=P(O)(O)OC[C@@H](O)[C@@H](O)[C@@H](O)CO [ribitol-5P, ribitol-5-phosphate]
- Lower growth rate in pyp1Δ cells after carbon upshift (pyp1Δ cells; switched from trehalose + ribitol to glucose plus ribitol): ~50%
- Inhibition of Pgi1 (in words) [1]: did not inhibit Pgi1 as strongly as sorbitol-6P; also recorded: less potently
- Pyp1 phosphatase activity on substrate (in words) (Pyp1): depletion

Structure (SMILES): OC[C@@H](O)[C@@H](O)[C@@H](O)CO [ribitol]
- Decrease of the growth rate of pyp1Δ cells (pyp1Δ cells; 1% trehalose +/- 1% ribitol): ~20%
- Effect on growth rate of wild type cells growing on trehalose (wild type yeast cells): does not affect the growth rate; also recorded: without impacting growth rate
